Assay results as given in patent publication US20210261636A1, “NEOANTIGENS EXPRESSED IN MULTIPLE MYELOMA AND THEIR USES” (Janssen Biotech, Inc., priority 2020, published 2021).

How the values were obtained:
CD4+ T cells = assay: Exogenous autologous healthy donor restimulation assay, TNFα and IFNγ production by CD4+ T cells; assay type: cell-based, human; design: Frequency (TNFα+ IFNγ+ CD4 T cells): unit not given here; details: donor independent, peptide pool 10 μg/mL, healthy donors; for Fold change (CD4+) vs. DMSO: maximum CD4+ T-cell response (TNFα and IFNγ); for Frequency (TNFα+ IFNγ+ CD4 T cells): maximum CD4+ T-cell response
How it was run: (§1)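 CD1c+ DCs from healthy donor PBMCs pulsed 2 h with 15-mer overlapping neoantigen peptide pools (10 μg/mL), irradiated 50 Gy, then co-cultured 12 days with autologous CD3+ T cells plus IL-15/IL-2. Restimulated day 11 with same pools, overnight with protein inhibitor; intracellular TNFα/IFNγ by flow. Positive: ≥3-fold over DMSO and ≥0.01% double-positive.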

CD8+ T cells = assay: Exogenous autologous healthy donor restimulation assay, TNFα and IFNγ production by CD8+ T cells; assay type: cell-based, human; design: Frequency (TNFα+ IFNγ+ CD8 T cells): unit not given here; details: for Fold change (CD8+) vs. DMSO: maximum CD8+ T-cell response (TNFα and IFNγ); for Fold change (CD8+) vs. DMSO / Frequency (TNFα+ IFNγ+ CD8 T cells): donor independent, peptide pool 10 μg/mL, healthy donors; for Frequency (TNFα+ IFNγ+ CD8 T cells): maximum CD8+ T-cell response; for Immunogenic (yes/no): positive if CD8+ and/or CD4+ double positive TNFα/IFNγ frequency >=3-fold over DMSO and at least 0.01%
How it was run: as §1

Substance | Fold change (CD4+) vs. DMSO (CD4+ T cells) | Frequency (TNFα+ IFNγ+ CD4 T cells) (CD4+ T cells) | Fold change (CD8+) vs. DMSO (CD8+ T cells) | Frequency (TNFα+ IFNγ+ CD8 T cells) (CD8+ T cells) | Immunogenic (yes/no) (CD8+ T cells)
VHLDFSSAEMGFPHAAQANVELLGSSDLLT [AS116, alternative splicing, FCRL5] | 6.32 | 0.076 | 192.71 | 1.42 | Yes
NASLHEVKDFFVPFPLPLLHLTSLKRNKLFN [AS110, alternative splicing, CCDC88A] | 36.021 | 0.21 | 228.56 | 4.21 | Yes
RSISLHKSDPSLLSPN [AS25, alternative splicing, TBCEL] | 57.01 | 0.061 | 43.6 | 0.028 | Yes
GGPPFVGPLRGPRAQPSLSGLCGRRTGSRDTIKIPGQT [FUS42, gene fusion RBM42-> ETV2] | 9.54 | 0.11 | 14.72 | 0.027 | Yes
AKFWSDISINRAPSFG [AS94, alternative splicing, TTLL7] | 62.53 | 0.63 | 97.14 | 2.72 | Yes
SSVTTHSSGNLRESPIYH [FUS32, gene fusion GANC-> CAPN3] | 3.08 | 0.008 | 12.04 | 0.018 | Yes
DLNQDGYNGNLNQSVEVIYVSSPLHKGDHACFKVFSMVCVGAVIITDF [AS64, alternative splicing, ITGA8] | 376.11 | 0.57 | 6.83 | 0.8 | Yes
DLFDEFDNSRLVSRSWFFFYLRNKWNLALGF [AS24, alternative splicing, ST3GAL6] | 613.88 | 3.14 | 1300 | 0.13 | Yes
SQKQPALKCLLRNNRP [AS84, alternative splicing, ANKRD36] | 10.66 | 0.019 | 162.14 | 4.54 | Yes
FU524 (SGLEAIQRGYETFYSE) | 3.13 | 0.014 | 259.11 | 0.48 | Yes
QLKKMVSKVRLRRARLPGRAHRSLPRPVESVPAQPSKLPRRAGSPGAVLSDLLRTPPRGACRLVRESPYGSWEGGGRRQSTKAWSGGYLTPAAHPPSSLPLSLELSVGQCSFSFVFINTNKGSYLVVDLRQSSTPVPI [AS11] | 69.02 | 0.45 | 4 | 0.033 | Yes
AGDVLFIPGISLKVHKVQHSKVINICN [AS55, alternative splicing, TYW5] | 27.71 | 0.042 | 96.05 | 0.17 | Yes
SATTRSITGQDILSLEKERR [AS17, alternative splicing, DCC] | 7.078 | 0.028 | 14.05 | 0.13 | Yes
NRVTALTQN [FUS35, gene fusion TMED3-> KIAA1024] | 2.28 | 0.019 | 3.24 | 0.049 | Yes
YGVYVINQKGHSGCIWSMDGEGRLETAWPVWKRGRCPGKRR [AS15, alternative splicing, B4GALT2] | 2469.136 | 0.9 | 290 | 0.029 | Yes
QIIYDENRTMQIFVKT [FUS28, gene fusion NCOR2-> UBC] | 1.13 | 0.009 | 247.49 | 0.37 | Yes
QRDRDSIKVGLKIYRLRNGLKGL [AS76, alternative splicing, TLE4] | 224.35 | 0.34 | 6.15 | 0.54 | Yes
GKSTPPRKEIFDDASP [FUS11, gene fusion GAB1-> SMARCA5] | 11.4 | 0.008 | 7.36 | 0.013 | Yes
GNVLVRYVSLYVYYILLN [AS97, alternative splicing, ANKRD28] | 96.12 | 0.57 | 13446.33 | 23.8 | Yes
LEDKELGRISVCPWTEGLEKMEKTLLCSSSG [AS88, alternative splicing, CADPS2] | 79.18 | 0.12 | 4.55 | 0.025 | Yes
DVAVICSGVPVADVS [FUS5, gene fusion CD5L-> FCRL1] | 6.97 | 0.021 | 4.59 | 0.079 | Yes
ISKRLKSRRRSGWQLNRAGNRGLSPGLGLFPRGCCRWGGAYTRLPSANQT [FUS20, gene fusion PTGES2-> SLC25A25-AS1] | 11.664 | 0.068 | 511.064 | 4.85 | Yes
ARHLLTLGTCGSTWP [FUS26, gene fusion P2RY6-> ARHGEF17] | 2.46 | 0.026 | 7.07 | 0.1 | Yes
KLLYEVSQKMVL [AS50, alternative splicing, PDZRN4] | 8.29 | 0.041 | 3.032 | 0.038 | Yes
ARWFTREQGSEN [FUS12, gene fusion NUDT12-> LINC02115] | 2.77 | 0.027 | 24.68 | 0.58 | Yes
QILQQALKIAFLKVVVPLKLHPYSFCH [AS132, alternative splicing, USP25] | 181.82 | 0.17 | 4.73 | 0.026 | Yes
VEDEEKKEAGTHFIHLTGTTVSAGVPEEMPATTLRREVF [AS108, alternative splicing, ACIN1] | 179.31 | 1.06 | 1406.07 | 12.5 | Yes
